According to article PMC11558128 (Advanced Science, 2024):
Positions of bridges follow the written chain, without caps; N, C: chain ends. Residues, ends and D or L forms follow the SMILES beside them.

The compounds below were run against T1, rKv4.2 (Rattus norvegicus, UniProt Q63881) (assay: cell-based). Settings: analogue compared with its parent toxin.
T1 construct: expressed in transfected cells; host or cells: HEK293T
T1 sequence (Q63881 1-630): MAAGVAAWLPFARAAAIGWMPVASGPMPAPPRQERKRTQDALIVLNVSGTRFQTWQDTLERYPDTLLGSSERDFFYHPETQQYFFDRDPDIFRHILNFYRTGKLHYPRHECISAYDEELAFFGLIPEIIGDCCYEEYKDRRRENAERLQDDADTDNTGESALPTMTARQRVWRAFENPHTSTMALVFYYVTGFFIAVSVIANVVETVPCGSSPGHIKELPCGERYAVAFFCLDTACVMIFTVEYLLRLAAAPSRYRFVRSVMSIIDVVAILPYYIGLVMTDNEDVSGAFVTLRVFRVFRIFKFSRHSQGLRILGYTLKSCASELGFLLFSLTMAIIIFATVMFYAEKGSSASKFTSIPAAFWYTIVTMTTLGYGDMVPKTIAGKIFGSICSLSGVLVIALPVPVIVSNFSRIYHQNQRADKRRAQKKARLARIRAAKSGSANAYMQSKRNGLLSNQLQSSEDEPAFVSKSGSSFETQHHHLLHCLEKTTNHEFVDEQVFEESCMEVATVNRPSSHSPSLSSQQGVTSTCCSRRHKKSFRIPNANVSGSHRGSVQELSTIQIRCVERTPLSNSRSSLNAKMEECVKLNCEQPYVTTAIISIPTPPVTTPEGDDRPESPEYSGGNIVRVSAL

SMILES	inhibition of rKv4.2, in words
CC(C)C[C@@H]1NC(=O)[C@H](Cc2ccc(O)cc2)NC(=O)[C@H](CC(N)=O)NC(=O)[C@H](CCCCN)NC(=O)[C@@H]2CSSC[C@H](NC(=O)CNC(=O)[C@@H](N)CCCCN)C(=O)N[C@@H](CCCCN)C(=O)NCC(=O)N[C@@H](Cc3ccccc3)C(=O)NCC(=O)N[C@@H](CC(=O)O)C(=O)N[C@@H](CO)C(=O)N[C@H]3CSSC[C@H](NC1=O)C(=O)N[C@@H](CO)C(=O)N[C@@H](CO)C(=O)N[C@@H](C)C(=O)N[C@@H](Cc1c[nH]cn1)C(=O)N[C@@H](CCCCN)C(=O)N[C@@H](Cc1c[nH]c4ccccc14)C(=O)N[C@H](C(=O)N[C@@H](CCCCN)C(=O)N[C@H](C(=O)N[C@@H](Cc1ccc(O)cc1)C(=O)N[C@@H](CC(C)C)C(=O)N[C@H](C(N)=O)C(C)C)C(C)C)CSSC[C@H](NC(=O)[C@H](CCC(=O)O)NC(=O)[C@H](CC(N)=O)NC(=O)[C@H](CCCCN)NC(=O)CNC(=O)[C@@H]1CCCN1C(=O)[C@H]([C@@H](C)O)NC3=O)C(=O)N2 [HNTX-III-H4-K25A] (H-KGCKGFGDSCTPGKNECCKNYLCSSAHKWCKVYLV-NH2; disulfide 3-18, 10-23, 17-30; N-terminus and C-terminus assumed)	disappeared

Same assay, conditions: whole-cell patch clamp, HEK293T; mean ± SEM, n = 3-8; SEM; read-out: IC50 on rKv4.2 WT

SMILES	IC50
CC(C)C[C@H](NC(=O)[C@H](Cc1ccc(O)cc1)NC(=O)[C@@H](NC(=O)[C@H](CCCCN)NC(=O)[C@@H]1CSSC[C@@H]2NC(=O)[C@H](CCC(=O)O)NC(=O)[C@H](CC(N)=O)NC(=O)[C@H](CCCCN)NC(=O)CNC(=O)[C@@H]3CCCN3C(=O)[C@H]([C@@H](C)O)NC(=O)[C@@H]3CSSC[C@H](NC(=O)[C@H](CC(C)C)NC(=O)[C@H](Cc4ccc(O)cc4)NC(=O)[C@H](CC(N)=O)NC(=O)[C@@H]4CCCN4C(=O)[C@H](CSSC[C@H](NC(=O)CN)C(=O)N[C@@H](CCCCN)C(=O)NCC(=O)N[C@@H](Cc4ccccc4)C(=O)NCC(=O)N[C@@H](CC(=O)O)C(=O)N[C@@H](CO)C(=O)N3)NC2=O)C(=O)N[C@@H](CO)C(=O)N[C@@H](CO)C(=O)N[C@@H](CCCCN)C(=O)N[C@@H](Cc2c[nH]cn2)C(=O)N[C@@H](CCCCN)C(=O)N[C@@H](Cc2c[nH]c3ccccc23)C(=O)N1)C(C)C)C(N)=O [A21L] (H-GCKGFGDSCTPGKNECCPNYLCSSKHKWCKVYL-NH2; disulfide 2-17, 9-22, 16-29)	60 ± 10 nM
CC(C)C[C@H](NC(=O)[C@H](Cc1ccc(O)cc1)NC(=O)[C@@H](NC(=O)[C@H](CCCCN)NC(=O)[C@@H]1CSSC[C@@H]2NC(=O)[C@H](CCC(=O)O)NC(=O)[C@H](CC(N)=O)NC(=O)[C@H](CCCCN)NC(=O)CNC(=O)[C@@H]3CCCN3C(=O)[C@H]([C@@H](C)O)NC(=O)[C@@H]3CSSC[C@H](NC(=O)[C@H](C(C)C)NC(=O)[C@H](Cc4ccc(O)cc4)NC(=O)[C@H](CC(N)=O)NC(=O)[C@@H]4CCCN4C(=O)[C@H](CSSC[C@H](NC(=O)CN)C(=O)N[C@@H](CCCCN)C(=O)NCC(=O)N[C@@H](Cc4ccccc4)C(=O)NCC(=O)N[C@@H](CC(=O)O)C(=O)N[C@@H](CO)C(=O)N3)NC2=O)C(=O)N[C@@H](CO)C(=O)N[C@@H](CO)C(=O)N[C@@H](CCCCN)C(=O)N[C@@H](Cc2c[nH]cn2)C(=O)N[C@@H](CCCCN)C(=O)N[C@@H](Cc2c[nH]c3ccccc23)C(=O)N1)C(C)C)C(N)=O [A21V] (H-GCKGFGDSCTPGKNECCPNYVCSSKHKWCKVYL-NH2; disulfide 2-17, 9-22, 16-29)	1000 ± 144 nM
CC(C)C[C@H](NC(=O)[C@H](Cc1ccc(O)cc1)NC(=O)[C@@H](NC(=O)[C@H](CCCCN)NC(=O)[C@@H]1CSSC[C@@H]2NC(=O)[C@H](CCC(=O)O)NC(=O)[C@H](CC(N)=O)NC(=O)[C@H](CCCCN)NC(=O)CNC(=O)[C@@H]3CCCN3C(=O)[C@H]([C@@H](C)O)NC(=O)[C@@H]3CSSC[C@H](NC(=O)[C@H](C)NC(=O)[C@H](Cc4ccc(O)cc4)NC(=O)[C@H](CC(N)=O)NC(=O)[C@@H]4CCCN4C(=O)[C@H](CSSC[C@H](NC(=O)CN)C(=O)N[C@@H](CCCCN)C(=O)NCC(=O)N[C@@H](CC(C)C)C(=O)NCC(=O)N[C@@H](CC(=O)O)C(=O)N[C@@H](CO)C(=O)N3)NC2=O)C(=O)N[C@@H](CO)C(=O)N[C@@H](CO)C(=O)N[C@@H](CCCCN)C(=O)N[C@@H](Cc2c[nH]cn2)C(=O)N[C@@H](CCCCN)C(=O)N[C@@H](Cc2c[nH]c3ccccc23)C(=O)N1)C(C)C)C(N)=O [F5L] (H-GCKGLGDSCTPGKNECCPNYACSSKHKWCKVYL-NH2; disulfide 2-17, 9-22, 16-29)	10000 ± 4000 nM
CC(C)C[C@H](NC(=O)[C@H](Cc1ccc(O)cc1)NC(=O)[C@@H](NC(=O)[C@H](CCCCN)NC(=O)[C@@H]1CSSC[C@@H]2NC(=O)[C@H](CCC(=O)O)NC(=O)[C@H](CC(N)=O)NC(=O)[C@H](CCCCN)NC(=O)CNC(=O)[C@@H]3CCCN3C(=O)[C@H]([C@@H](C)O)NC(=O)[C@@H]3CSSC[C@H](NC(=O)[C@H](C)NC(=O)[C@H](Cc4ccc(O)cc4)NC(=O)[C@H](CC(N)=O)NC(=O)[C@@H]4CCCN4C(=O)[C@H](CSSC[C@H](NC(=O)CN)C(=O)N[C@@H](CCCCN)C(=O)NCC(=O)N[C@@H](Cc4c[nH]c5ccccc45)C(=O)NCC(=O)N[C@@H](CC(=O)O)C(=O)N[C@@H](CO)C(=O)N3)NC2=O)C(=O)N[C@@H](CO)C(=O)N[C@@H](CO)C(=O)N[C@@H](CCCCN)C(=O)N[C@@H](Cc2c[nH]cn2)C(=O)N[C@@H](CCCCN)C(=O)N[C@@H](Cc2c[nH]c3ccccc23)C(=O)N1)C(C)C)C(N)=O [F5W] (H-GCKGWGDSCTPGKNECCPNYACSSKHKWCKVYL-NH2; disulfide 2-17, 9-22, 16-29)	833 ± 81 nM
CC(C)C[C@H](NC(=O)[C@H](Cc1ccc(O)cc1)NC(=O)[C@@H](NC(=O)[C@H](CCCCN)NC(=O)[C@@H]1CSSC[C@@H]2NC(=O)[C@H](CCC(=O)O)NC(=O)[C@H](CC(N)=O)NC(=O)[C@H](CCCCN)NC(=O)CNC(=O)[C@@H]3CCCN3C(=O)[C@H]([C@@H](C)O)NC(=O)[C@@H]3CSSC[C@H](NC(=O)[C@H](C)NC(=O)[C@H](Cc4ccc(O)cc4)NC(=O)[C@H](CC(N)=O)NC(=O)[C@@H]4CCCN4C(=O)[C@H](CSSC[C@H](NC(=O)[C@@H](N)Cc4ccccc4)C(=O)N[C@@H](CCCCN)C(=O)NCC(=O)N[C@@H](Cc4ccccc4)C(=O)NCC(=O)N[C@@H](CC(=O)O)C(=O)N[C@@H](CO)C(=O)N3)NC2=O)C(=O)N[C@@H](CO)C(=O)N[C@@H](CO)C(=O)N[C@@H](CCCCN)C(=O)N[C@@H](Cc2c[nH]cn2)C(=O)N[C@@H](CCCCN)C(=O)N[C@@H](Cc2c[nH]c3ccccc23)C(=O)N1)C(C)C)C(N)=O [G1F] (H-FCKGFGDSCTPGKNECCPNYACSSKHKWCKVYL-NH2; disulfide 2-17, 9-22, 16-29)	176 ± 47 nM
CC(C)C[C@H](NC(=O)[C@H](Cc1ccc(O)cc1)NC(=O)[C@@H](NC(=O)[C@H](CCCCN)NC(=O)[C@@H]1CSSC[C@@H]2NC(=O)[C@H](CCC(=O)O)NC(=O)[C@H](CC(N)=O)NC(=O)[C@H](CCCCN)NC(=O)[C@H](CCC(=O)O)NC(=O)[C@@H]3CCCN3C(=O)[C@H]([C@@H](C)O)NC(=O)[C@@H]3CSSC[C@H](NC(=O)[C@H](C)NC(=O)[C@H](Cc4ccc(O)cc4)NC(=O)[C@H](CC(N)=O)NC(=O)[C@@H]4CCCN4C(=O)[C@H](CSSC[C@H](NC(=O)CN)C(=O)N[C@@H](CCCCN)C(=O)NCC(=O)N[C@@H](Cc4ccccc4)C(=O)NCC(=O)N[C@@H](CC(=O)O)C(=O)N[C@@H](CO)C(=O)N3)NC2=O)C(=O)N[C@@H](CO)C(=O)N[C@@H](CO)C(=O)N[C@@H](CCCCN)C(=O)N[C@@H](Cc2c[nH]cn2)C(=O)N[C@@H](CCCCN)C(=O)N[C@@H](Cc2c[nH]c3ccccc23)C(=O)N1)C(C)C)C(N)=O [G12E] (H-GCKGFGDSCTPEKNECCPNYACSSKHKWCKVYL-NH2; disulfide 2-17, 9-22, 16-29)	359 ± 82 nM
